Several values for one entry are separate records, joined by “and”; a condition that tells them apart may be missing. Equal entries are not always repeated.

For assay [1], the target named is T1, norepinephrine transporter (NET) (Homo sapiens, UniProt P23975).
T1 construct: purchased Eurofins Cerep P270
Put plainly: SafetyScreen44 panel. It counts as binding. On the procedure: (§1) Measurements were performed in duplicate.
(§2) channel, which were obtainedfrom ratspecimens).
(§3) in brackets) specific for each target.

Assay [2] addresses T2, serotonin 5-HT2B receptor (Homo sapiens, UniProt P41595).
T2 construct: purchased Eurofins Cerep P270
Put plainly: SafetyScreen44 panel. It is filed as binding. On the procedure: as §1, §2, §3

Assay [3] deals with T3, adrenergic α1A receptor (Homo sapiens, UniProt P35348).
T3 construct: purchased Eurofins Cerep P270
Description: SafetyScreen44 panel. It is filed as binding. The procedure:
as §1, §2, §3

In assay [4] the target is T4, serotonin 5-HT2A receptor (Homo sapiens, UniProt P28223).
T4 construct: purchased Eurofins Cerep P270
Put plainly: SafetyScreen44 panel. It is filed as binding. On the procedure:
as §1, §2, §3

Assay [5] concerns the target T5, dopamine D2S receptor (Homo sapiens, UniProt P14416).
T5 construct: purchased Eurofins Cerep P270
Description: SafetyScreen44 panel. It counts as binding. On the procedure:
as §1, §2, §3

Assay [6] has as its target T6, serotonin transporter (SET) (Homo sapiens, UniProt P31645).
T6 construct: purchased Eurofins Cerep P270
Description: SafetyScreen44 panel. It is filed as binding. On the procedure:
as §1, §2, §3

The target of assay [7] is T7, dopamine D1 receptor (Homo sapiens, UniProt P21728).
T7 construct: purchased Eurofins Cerep P270
Put plainly: SafetyScreen44 panel. It counts as binding. On the procedure:
as §1, §2, §3

In assay [8] the test system is voltage-gated (KV) potassium channel. Description: SafetyScreen44 panel. It counts as binding, rat. The following applies: 10 µM. The procedure: as §1, §2, §3
Assay [9] addresses T8, human Slack (Homo sapiens, UniProt Q5JUK3).
T8 construct: host or cells: HEK293
T8 sequence (Q5JUK3 1-1230): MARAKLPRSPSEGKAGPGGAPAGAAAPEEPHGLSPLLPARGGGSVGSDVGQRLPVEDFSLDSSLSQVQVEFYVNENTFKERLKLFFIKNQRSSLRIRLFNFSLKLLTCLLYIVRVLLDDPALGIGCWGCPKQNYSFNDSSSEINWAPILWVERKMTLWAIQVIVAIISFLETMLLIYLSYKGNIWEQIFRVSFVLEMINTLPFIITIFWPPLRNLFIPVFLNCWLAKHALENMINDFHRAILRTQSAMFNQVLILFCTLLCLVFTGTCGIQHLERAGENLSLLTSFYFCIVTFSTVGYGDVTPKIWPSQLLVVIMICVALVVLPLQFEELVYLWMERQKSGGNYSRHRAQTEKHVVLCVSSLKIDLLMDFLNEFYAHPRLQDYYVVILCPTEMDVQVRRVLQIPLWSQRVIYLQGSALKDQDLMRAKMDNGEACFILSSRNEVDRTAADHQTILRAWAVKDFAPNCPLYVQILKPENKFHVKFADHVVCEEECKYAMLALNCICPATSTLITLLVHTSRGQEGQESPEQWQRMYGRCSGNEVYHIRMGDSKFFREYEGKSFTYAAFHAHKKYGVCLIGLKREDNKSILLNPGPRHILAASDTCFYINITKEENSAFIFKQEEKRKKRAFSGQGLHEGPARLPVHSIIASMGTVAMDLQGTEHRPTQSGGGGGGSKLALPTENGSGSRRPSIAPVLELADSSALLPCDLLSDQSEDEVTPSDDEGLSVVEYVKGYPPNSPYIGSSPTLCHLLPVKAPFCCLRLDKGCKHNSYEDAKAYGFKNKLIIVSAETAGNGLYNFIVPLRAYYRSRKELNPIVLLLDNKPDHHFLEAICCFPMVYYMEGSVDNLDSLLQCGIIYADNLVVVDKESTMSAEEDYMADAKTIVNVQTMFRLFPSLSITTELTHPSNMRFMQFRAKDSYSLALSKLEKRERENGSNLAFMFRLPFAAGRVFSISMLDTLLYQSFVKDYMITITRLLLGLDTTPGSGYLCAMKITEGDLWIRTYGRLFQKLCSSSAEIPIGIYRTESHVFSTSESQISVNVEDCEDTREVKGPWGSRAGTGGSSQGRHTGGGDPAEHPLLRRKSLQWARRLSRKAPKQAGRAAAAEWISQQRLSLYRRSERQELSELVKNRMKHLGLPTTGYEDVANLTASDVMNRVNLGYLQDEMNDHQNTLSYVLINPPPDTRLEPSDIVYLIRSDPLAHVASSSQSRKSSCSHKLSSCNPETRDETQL
Description: FluxOR potassium ion channel assay in HEK-Slack cells. It counts as cell-based. On the procedure:
The functional activity of this series of compounds against human Slack was determined using a cell‐based FluxOR potassium ion channel assay in cultured HEK293 cells stably expressing human Slack (herein referred to as HEK‐Slack cells) and a Na^+‐free assay buffer to prevent compound‐independent Slack activation by monovalent cations.^[ [14], [24] ^] […] Of the 114 newly synthesized compounds, 31 acted as Slack activators to varying extents. Accordingly, we deemed eight of these as the most interesting candidates.
To determine the Slack‐activating efficacy and potency of the novel compounds, a commercial FluxOR potassium ion channel assay (#10 017; Invitrogen) was used. HEK‐Slack cells were plated at a density of 50 000 cells per well on a poly‐D‐lysine coated (75 µg mL^−1, Sigma–Aldrich) 96‐well, black‐walled microplate with clear bottom (#655 090; Greiner Bio‐One) in DMEM (100 µL per well) containing 10% FBS and 1% penicillin/streptomycin 24 h prior to assaying. In the initial experiments shown in Figure S3A–F (Supporting Information), HEK‐Slack cells were plated at a density of 100 000 cells/well 48 h prior to the assay. On the day of the experiment, the cells were loaded with FluxOR dye according to the manufacturer's protocol. A Na^+‐free assay buffer, adjusted to pH 7.4 with KOH, containing 140 mM choline chloride, 5 mM KCl, 2 mM CaCl2, 2 mM MgSO4, 10 mM HEPES, and 5.55 mM glucose was used. To reduce background fluorescence, all assay components were complemented with a 10% BackDrop Background Suppressor (#B10511; Invitrogen).
All compounds were prepared as a 333 mM stock in DMSO and diluted on the experimental day to a final concentration of 100, 50, 25, 12.5, 6.25, 3.125, or 1.5625 µM in an assay buffer with DMSO adjusted to 0.03%. Before treatment, the cells were washed, and the medium was exchanged for the assay buffer. In a total volume of 90 µL per well, the cells were then incubated for 30 min at 37 °C with compounds at the indicated concentrations, or 0.03% DMSO alone as the vehicle. […] Fluorescence was measured using an Infinite M200 microplate reader (Tecan) with excitation at 485 nm (9 nm bandwidth) and emission at 525 nm (20 nm bandwidth) in the bottom read mode. First, the baseline fluorescence of the individual wells was established. Thereafter cells were stimulated with 20 µL Tl2SO4 (5 mM) solution injected at 100 µL s^−1, and fluorescence was further recorded for 100 s. Assays were run in triplicate. For all time points, the ratio of fluorescence to baseline fluorescence was calculated first for individual wells, and the average was then used.
Dose‐response curves comprising six concentrations were obtained in triplets using fluorescence/fluorescenceBaseline ratios at the 100th s.

The mark [10] stands for this setting: HEK-Slack cells, Na+-free assay buffer, mean (95% confidence interval).

T3 sequence (P35348 whole entry): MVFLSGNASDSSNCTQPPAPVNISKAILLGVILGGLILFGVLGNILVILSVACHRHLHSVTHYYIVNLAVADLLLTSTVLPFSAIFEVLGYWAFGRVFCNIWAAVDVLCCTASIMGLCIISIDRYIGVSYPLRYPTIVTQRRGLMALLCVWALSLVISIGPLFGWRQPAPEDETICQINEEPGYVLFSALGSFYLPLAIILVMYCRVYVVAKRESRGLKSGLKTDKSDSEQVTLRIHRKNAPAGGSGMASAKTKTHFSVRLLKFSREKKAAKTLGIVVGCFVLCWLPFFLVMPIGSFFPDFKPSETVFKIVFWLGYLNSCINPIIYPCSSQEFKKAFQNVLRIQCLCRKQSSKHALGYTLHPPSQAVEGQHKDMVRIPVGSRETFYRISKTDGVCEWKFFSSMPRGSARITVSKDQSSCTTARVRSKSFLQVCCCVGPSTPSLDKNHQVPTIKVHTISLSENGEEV
T1 sequence (P23975 whole entry): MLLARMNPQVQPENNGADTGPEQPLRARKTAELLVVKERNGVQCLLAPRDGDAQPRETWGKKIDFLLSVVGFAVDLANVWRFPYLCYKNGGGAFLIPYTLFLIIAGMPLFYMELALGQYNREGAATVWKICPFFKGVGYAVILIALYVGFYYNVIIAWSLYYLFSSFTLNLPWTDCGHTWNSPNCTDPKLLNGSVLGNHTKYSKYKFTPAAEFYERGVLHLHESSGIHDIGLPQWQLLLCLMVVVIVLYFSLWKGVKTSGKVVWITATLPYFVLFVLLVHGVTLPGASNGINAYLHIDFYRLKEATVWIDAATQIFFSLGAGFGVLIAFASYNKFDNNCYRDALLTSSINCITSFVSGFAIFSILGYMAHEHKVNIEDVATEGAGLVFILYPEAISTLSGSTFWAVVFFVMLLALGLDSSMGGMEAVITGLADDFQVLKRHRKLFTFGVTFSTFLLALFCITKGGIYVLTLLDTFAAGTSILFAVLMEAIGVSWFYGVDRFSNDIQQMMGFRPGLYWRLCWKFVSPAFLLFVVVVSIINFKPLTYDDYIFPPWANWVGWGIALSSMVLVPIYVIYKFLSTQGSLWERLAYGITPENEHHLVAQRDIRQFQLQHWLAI
T2 sequence (P41595 whole entry): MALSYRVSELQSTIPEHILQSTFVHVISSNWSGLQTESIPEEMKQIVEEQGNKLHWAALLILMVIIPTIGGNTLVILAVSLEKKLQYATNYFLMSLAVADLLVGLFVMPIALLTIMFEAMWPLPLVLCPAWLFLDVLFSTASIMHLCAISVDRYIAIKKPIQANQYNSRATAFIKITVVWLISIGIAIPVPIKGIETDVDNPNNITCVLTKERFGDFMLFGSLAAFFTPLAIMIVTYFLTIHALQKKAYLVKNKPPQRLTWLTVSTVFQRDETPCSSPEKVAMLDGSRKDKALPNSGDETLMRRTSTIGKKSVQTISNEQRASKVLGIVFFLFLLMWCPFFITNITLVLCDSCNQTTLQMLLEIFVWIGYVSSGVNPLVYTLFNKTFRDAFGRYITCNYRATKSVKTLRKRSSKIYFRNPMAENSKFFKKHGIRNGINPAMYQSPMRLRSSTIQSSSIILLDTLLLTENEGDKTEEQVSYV
T6 sequence (P31645 whole entry): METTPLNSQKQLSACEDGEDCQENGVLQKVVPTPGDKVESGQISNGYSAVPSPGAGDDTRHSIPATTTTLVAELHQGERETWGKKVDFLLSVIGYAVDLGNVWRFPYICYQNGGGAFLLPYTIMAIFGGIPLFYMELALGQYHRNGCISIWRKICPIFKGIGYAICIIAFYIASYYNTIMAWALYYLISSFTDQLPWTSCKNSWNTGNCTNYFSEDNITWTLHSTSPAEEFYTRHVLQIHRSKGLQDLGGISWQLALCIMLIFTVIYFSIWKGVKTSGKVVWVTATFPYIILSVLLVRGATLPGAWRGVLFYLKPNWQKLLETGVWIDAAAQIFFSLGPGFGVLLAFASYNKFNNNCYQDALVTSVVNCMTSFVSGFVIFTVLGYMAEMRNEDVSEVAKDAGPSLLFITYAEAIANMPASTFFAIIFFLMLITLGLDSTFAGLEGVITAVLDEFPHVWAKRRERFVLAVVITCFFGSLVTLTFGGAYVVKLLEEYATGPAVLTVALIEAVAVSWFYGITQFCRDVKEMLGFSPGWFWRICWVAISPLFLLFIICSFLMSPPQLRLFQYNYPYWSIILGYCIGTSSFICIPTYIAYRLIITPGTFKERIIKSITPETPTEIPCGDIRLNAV
T7 sequence (P21728 whole entry): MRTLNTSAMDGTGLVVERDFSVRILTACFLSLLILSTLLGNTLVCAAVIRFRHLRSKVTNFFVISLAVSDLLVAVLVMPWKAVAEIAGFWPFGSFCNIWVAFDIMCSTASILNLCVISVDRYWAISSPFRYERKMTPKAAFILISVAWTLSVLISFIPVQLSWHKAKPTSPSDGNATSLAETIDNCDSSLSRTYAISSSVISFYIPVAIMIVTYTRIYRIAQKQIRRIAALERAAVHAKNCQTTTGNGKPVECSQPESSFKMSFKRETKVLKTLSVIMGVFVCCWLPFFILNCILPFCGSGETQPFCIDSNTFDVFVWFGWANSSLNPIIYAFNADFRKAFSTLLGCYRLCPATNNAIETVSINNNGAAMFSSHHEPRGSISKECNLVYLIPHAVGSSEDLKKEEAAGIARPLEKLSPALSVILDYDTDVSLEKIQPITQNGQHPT
T4 sequence (P28223 whole entry): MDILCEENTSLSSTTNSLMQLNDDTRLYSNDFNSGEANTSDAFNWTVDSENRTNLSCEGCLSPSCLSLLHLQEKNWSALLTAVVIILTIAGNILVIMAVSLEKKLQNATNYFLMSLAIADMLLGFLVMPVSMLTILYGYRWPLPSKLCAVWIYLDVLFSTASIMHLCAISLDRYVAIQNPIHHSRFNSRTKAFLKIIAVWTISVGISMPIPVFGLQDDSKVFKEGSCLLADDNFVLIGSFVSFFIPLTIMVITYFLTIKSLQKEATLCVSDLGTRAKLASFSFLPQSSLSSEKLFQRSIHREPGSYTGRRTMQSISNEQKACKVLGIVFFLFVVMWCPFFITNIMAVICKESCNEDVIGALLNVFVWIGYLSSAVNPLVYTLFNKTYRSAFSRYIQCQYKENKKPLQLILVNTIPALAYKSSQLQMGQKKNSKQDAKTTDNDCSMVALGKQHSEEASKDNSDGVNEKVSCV
T5 sequence (P14416 1-414 isoform P14416-2): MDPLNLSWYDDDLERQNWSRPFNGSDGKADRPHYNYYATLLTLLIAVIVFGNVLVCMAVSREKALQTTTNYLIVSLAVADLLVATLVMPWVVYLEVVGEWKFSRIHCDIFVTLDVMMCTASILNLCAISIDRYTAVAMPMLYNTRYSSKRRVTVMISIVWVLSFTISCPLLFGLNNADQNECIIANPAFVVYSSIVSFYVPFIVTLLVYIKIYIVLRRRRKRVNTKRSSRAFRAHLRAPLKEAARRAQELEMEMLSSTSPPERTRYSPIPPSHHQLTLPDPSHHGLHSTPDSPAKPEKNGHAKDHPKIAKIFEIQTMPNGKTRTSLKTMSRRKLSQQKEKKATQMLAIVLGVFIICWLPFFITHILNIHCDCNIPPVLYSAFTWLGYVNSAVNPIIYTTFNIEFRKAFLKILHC

As usually defined, the Emax is the maximal effect, on the per cent scale that the assay sets. One may read the EC50 as the concentration that produces a half-maximal response. A higher EC50 goes with weaker potency. On to `O=C(O)COCCN1CCN(C2=Nc3ccccc3Oc3ccc(Cl)cc32)CC1` [Compound 6], for which the binding inhibition entry in [1] (10 µM), in assay [2] (10 µM), in [3] (10 µM), in assay [4] (10 µM), in assay [5] (10 µM) and in assay [6] (10 µM) was “substantial binding” each time. Also, in [7] (10 µM), the binding inhibition result is recorded as “substantial binding”. Further, the binding entry in [8] is “did not measurably bind”. The Emax in assay [9] came out at 96.2%. The EC50 in [9] (setting [10]) is 30 µM and 30.3 µM.

For orientation: inhibition means the change of the read-out against control, counted positive when it falls. With `CN1CCN(C2=Nc3ccccc3Oc3ccc(Cl)cc32)CC1` [Loxapine, reference compound], the inhibition at 10 µM in assay [1] (read-out: binding inhibition), in assay [2] (read-out: binding inhibition), in assay [3] (read-out: binding inhibition), in [4] (read-out: binding inhibition), in [5] (read-out: binding inhibition) and in assay [6] (read-out: binding inhibition) was over 50% in each case. Moreover, the inhibition at 10 µM in assay [7] (read-out: binding inhibition) was over 50%. The binding result in assay [8] was “did not measurably bind”. Moreover, the Emax in [9] is 100%. The EC50 was 20.7 µM in assay [9] (setting [10]); 23.4 µM in assay [9] (first preliminary experiments, Na+-free buffer with 2 mM Ca2+, 2 mM Mg2+ and 0.03% DMSO).

Values taken from publication PMC11022729 (Advanced Science, 2024).
